Active and inactive are the calls of the source. The calls are words filed in the database; no cut-off is given here.
How the values were obtained:
[1] = molecular target: Cholinesterase (Mus musculus) (UniProt Q03311); assay: Inhibition of cholinesterase in mouse skeletal muscle at 2 uM/ml; assay type: tissue-based; conditions: Muscle tissue
[2] = molecular target: Cholinesterase (Mus musculus) (UniProt Q03311); assay: Inhibition of cholinesterase in mouse skeletal muscle at 10 uM/ml; conditions: Muscle tissue

Chain of Cholinesterase (Mus musculus) (Q03311 whole entry): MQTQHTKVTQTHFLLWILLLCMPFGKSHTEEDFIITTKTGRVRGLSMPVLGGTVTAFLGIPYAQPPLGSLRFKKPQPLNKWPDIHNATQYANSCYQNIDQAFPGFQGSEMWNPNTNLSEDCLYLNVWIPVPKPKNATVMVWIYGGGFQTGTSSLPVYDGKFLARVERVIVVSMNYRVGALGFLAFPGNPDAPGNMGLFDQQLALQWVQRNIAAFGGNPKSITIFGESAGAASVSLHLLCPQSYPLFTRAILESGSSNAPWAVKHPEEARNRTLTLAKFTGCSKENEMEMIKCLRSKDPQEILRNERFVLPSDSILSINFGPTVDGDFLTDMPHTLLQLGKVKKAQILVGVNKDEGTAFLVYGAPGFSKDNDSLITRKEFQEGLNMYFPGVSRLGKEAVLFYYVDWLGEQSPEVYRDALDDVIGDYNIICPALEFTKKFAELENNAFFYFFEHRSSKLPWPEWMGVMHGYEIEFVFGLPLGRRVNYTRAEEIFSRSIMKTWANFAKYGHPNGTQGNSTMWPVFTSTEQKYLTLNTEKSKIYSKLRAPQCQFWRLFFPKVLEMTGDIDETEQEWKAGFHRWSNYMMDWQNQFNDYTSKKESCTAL

C=C[C@@H]1[C@H]2C=C(C)C[C@]1(NC)c1ccc(=O)[nH]c1C2 was tested, and the Activity [1] was “Active”.
In the case of C=C[C@@H]1[C@H]2C=C(C)C[C@]1(N(C)C)c1ccc(=O)[nH]c1C2, the Activity [2] is reported as “inactive”.

Source: ChEMBL document CHEMBL1149073, “Alkaloids from Lycopodium casuarinoides” (J Nat Prod, 1994)
